Target: recombinant DYRK1A kinase (Homo sapiens, UniProt Q13627)
Experiment: DYRK1A kinase assay (Ser/Thr 18 peptide Z-lyte FRET)
Format: biochemical
Settings: DYRK1A kinase activity; 15 μM ATP, 4 μM Ser/Thr peptide 18, one hour at room temperature
How it was run: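 Recombinant DYRK1A at 0.25 μg/mL was incubated 1 h at room temperature with 15 μM ATP, 4 μM Ser/Thr 18 peptide and compound, in duplicate, 11-point series from 10 μM. Phosphorylation was read by Z-lyte FRET after 1 h protease development, as the coumarin/fluorescein emission ratio converted to % phosphorylation. IC50 by non-linear regression.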

EC50 | SMILES
22 nM | O=C(Nc1cncc(F)c1)c1cnc2[nH]cc(-c3ccc4c(c3)C3(CCNCC3)CC4=O)c2c1 [Compound 764, N-(5-fluoropyridin-3-yl)-3-(3-oxo-2,3-dihydrospiro[indene-1,4′-piperidin]-6-yl)-1H-pyrrolo[2,3-b]pyridine-5-carboxamide]
2 nM | Cn1cc(-c2cnc3[nH]cc(-c4ccc5nccn5c4)c3c2)cn1 [Compound 1036, 6-(5-(1-Methyl-1H-pyrazol-4-yl)-1H-pyrrolo[2,3-b]pyridin-3-yl) imidazo[1,2-a]pyridine]
19 nM | CN1CCC(Nc2ncnc3ccc(-c4c[nH]c5ncc(-c6cnn(C)c6)cc45)cc23)CC1 [Compound 1074, 6-(5-(1-Methyl-1H-pyrazol-4-yl)-1H-pyrrolo[2,3-b]pyridin-3-yl)-N-(1-methylpiperidin-4-yl)quinazolin-4-amine]
10 nM | CN1CCn2ncc(-c3cnc4[nH]cc(-c5ccc6ncncc6c5)c4c3)c2C1 [Compound 1154, 6-(5-(5-Methyl-4,5,6,7-tetrahydropyrazolo[1,5-a]pyrazin-3-yl)-1H-pyrrolo[2,3-b]pyridin-3-yl)quinazoline]
3 nM | Cc1nc2c(F)cc(-c3c[nH]c4ncc(-c5cccnc5)cc34)cc2n1C1CCN(C)CC1 [Compound 1166, 4-Fluoro-2-methyl-1-(1-methylpiperidin-4-yl)-6-(5-(pyridin-3-yl)-1H-pyrrolo[2,3-b]pyridin-3-yl)-1H-benzo[d]imidazole]
6 nM | CN1CCC(NC(=O)c2cnn3ccc(-c4c[nH]c5ncc(-c6cccnc6)cc45)cc23)CC1 [Compound 1178, N-(1-Methylpiperidin-4-yl)-5-(5-(pyridin-3-yl)-1H-pyrrolo[2,3-b]pyridin-3-yl)pyrazolo[1,5-a]pyridine-3-carboxamide]
10 nM | O=C1CC2(CCNCC2)Oc2cc(-c3c[nH]c4ncc(-c5cccnc5)cc34)ccc21 [Compound 1192, 7-(5-(Pyridin-3-yl)-1H-pyrrolo[2,3-b]pyridin-3-yl)spiro[chromane-2,4′-piperidin]-4-one]
3 nM | COc1ncnc2ccc(-c3c[nH]c4ncc(-c5cccnc5)cc34)cc12 [Compound 1197, 4-Methoxy-6-(5-(pyridin-3-yl)-1H-pyrrolo[2,3-b]pyridin-3-yl) quinazoline]
3 nM | CN1CCN(c2ncnc3ccc(-c4c[nH]c5ncc(-c6cccnc6)cc45)cc23)CC1 [Compound 1198, 4-(4-Methylpiperazin-1-yl)-6-(5-(pyridin-3-yl)-1H-pyrrolo[2,3-b]pyridin-3-yl)quinazoline]
1 nM | CN1CCN(c2ccc(-c3cnc4[nH]cc(-c5ccc6ncccc6c5)c4c3)cn2)CC1 [Compound 1362, 6-(5-(6-(4-Methylpiperazin-1-yl)pyridin-3-yl)-1H-pyrrolo[2,3-b]pyridin-3-yl)quinoline]
6 nM | CN1CCN(c2cc(-c3cnc4[nH]cc(-c5cc6ccncc6s5)c4c3)ccn2)CC1 [Compound 1370, 2-(5-(2-(4-Methylpiperazin-1-yl)pyridin-4-yl)-1H-pyrrolo[2,3-b]pyridin-3-yl)thieno[2,3-c]pyridine]
1 nM | CN1CCN(c2cc(-c3cnc4[nH]cc(-c5ccn6ncc(-c7cnn(C)c7)c6c5)c4c3)ccn2)CC1 [Compound 1384, 3-(3-(1-methyl-1H-pyrazol-4-yl)pyrazolo[1,5-a]pyridin-5-yl)-5-(2-(4-methylpiperazin-1-yl)pyridin-4-yl)-1H-pyrrolo[2,3-b]pyridine]

More lines, now with the values behind:

SMILES | EC50
Cc1nc2c(F)cc(-c3c[nH]c4ncc(C(=O)Nc5ccc(N6CCN(C)CC6)nc5)cc34)cc2n1C(C)C [Compound 787, 3-(4-Fluoro-1-isopropyl-2-methyl-1H-benzo[d]imidazol-6-yl)-N-(6-(4-methylpiperazin-1-yl)pyridin-3-yl)-1H-pyrrolo[2,3-b]pyridine-5-carboxamide] | 3 nM
CN1CCN(c2ccc(NC(=O)c3cnc4[nH]cc(-c5ccn6ncnc6c5)c4c3)cn2)CC1 [Compound 792, 3-([1,2,4]Triazolo[1,5-a]pyridin-7-yl)-N-(6-(4-methylpiperazin-1-yl)pyridin-3-yl)-1H-pyrrolo[2,3-b]pyridine-5-carboxamide] | 10 nM
CN1CCN(c2ccc(NC(=O)c3cnc4[nH]cc(-c5ccn6ncc(C(=O)N7CCCCC7)c6c5)c4c3)cn2)CC1 [Compound 802, N-(6-(4-Methylpiperazin-1-yl)pyridin-3-yl)-3-(3-(piperidine-1-carbonyl)pyrazolo[1,5-a]pyridin-5-yl)-1H-pyrrolo[2,3-b]pyridine-5-carboxamide] | 7 nM
CN1CCN(c2ccc(NC(=O)c3cnc4[nH]cc(-c5ccc6c(c5)C(C)(C)CNC6=O)c4c3)cn2)CC1 [Compound 813, 3-(4,4-Dimethyl-1-oxo-1,2,3,4-tetrahydroisoquinolin-6-yl)-N-(6-(4-methylpiperazin-1-yl)pyridin-3-yl)-1H-pyrrolo[2,3-b]pyridine-5-carboxamide] | 3 nM
Cc1nc2c(F)cc(-c3c[nH]c4ncc(NC(=O)c5ccnc(N6CCNCC6)c5)cc34)cc2n1C(C)C [Compound 829, N-(3-(4-Fluoro-1-isopropyl-2-methyl-1H-benzo[d]imidazol-6-yl)-1H-pyrrolo[2,3-b]pyridin-5-yl)-2-(piperazin-1-yl)isonicotinamide] | 2 nM
Cc1nc2c(F)cc(-c3c[nH]c4ncc(Nc5ccnc(N6CCN(C)CC6)c5)cc34)cc2n1C(C)C [Compound 871, 3-(4-Fluoro-1-isopropyl-2-methyl-1H-benzo[d]imidazol-6-yl)-N-(2-(4-methylpiperazin-1-yl)pyridin-4-yl)-1H-pyrrolo[2,3-b]pyridin-5-amine] | 2 nM
Cc1nc2c(F)cc(-c3c[nH]c4ncc(-c5ccccc5)cc34)cc2n1C(C)C [Compound 913, 4-Fluoro-1-isopropyl-2-methyl-6-(5-phenyl-1H-pyrrolo[2,3-b]pyridin-3-yl)-1H-benzo[d]imidazole] | 4 nM
Cc1ccccc1-c1cnc2[nH]cc(-c3cc(F)c4nc(C)n(C(C)C)c4c3)c2c1 [Compound 955, 4-Fluoro-1-isopropyl-2-methyl-6-(5-(o-tolyl)-1H-pyrrolo[2,3-b]pyridin-3-yl)-1H-benzo[d]imidazole] | 20 nM
Cc1nc2c(F)cc(-c3c[nH]c4ncc(-c5cc(F)c(F)c(N6CCNCC6)c5)cc34)cc2n1C(C)C [Compound 997, 6-(5-(3,4-Difluoro-5-(piperazin-1-yl)phenyl)-1H-pyrrolo[2,3-b]pyridin-3-yl)-4-fluoro-1-isopropyl-2-methyl-1H-benzo[d]imidazole] | 6 nM
CN1CCN(C(=O)c2cnn3ccc(-c4c[nH]c5ncc(-c6cnn(C)c6)cc45)cc23)CC1 [Compound 1055, (5-(5-(1-Methyl-1H-pyrazol-4-yl)-1H-pyrrolo[2,3-b]pyridin-3-yl)pyrazolo[1,5-a]pyridin-3-yl)(4-methylpiperazin-1-yl)methanone] | 9 nM
Cc1nn(C)c(C)c1-c1cnc2[nH]cc(-c3cc(F)c4nc(C)n(C(C)C)c4c3)c2c1 [Compound 1081, 4-Fluoro-1-isopropyl-2-methyl-6-(5-(1,3,5-trimethyl-1H-pyrazol-4-yl)-1H-pyrrolo[2,3-b]pyridin-3-yl)-1H-benzo[d]imidazole] | 2 nM
Cc1nc2c(F)cc(-c3c[nH]c4ncc(-c5cnn6c5CN(C)CC6)cc34)cc2n1C(C)C [Compound 1123, 3-(3-(4-Fluoro-1-isopropyl-2-methyl-1H-benzo[d]imidazol-6-yl)-1H-pyrrolo[2,3-b]pyridin-5-yl)-5-methyl-4,5,6,7-tetrahydropyrazolo[1,5-a]pyrazine] | 4 nM
CN1CCn2ncc(-c3cnc4[nH]cc(-c5ccn6ncc(C(=O)Nc7cccnc7)c6c5)c4c3)c2C1 [Compound 1137, 5-(5-(5-Methyl-4,5,6,7-tetrahydropyrazolo[1,5-a]pyrazin-3-yl)-1H-pyrrolo[2,3-b]pyridin-3-yl)-N-(pyridin-3-yl)pyrazolo[1,5-a]pyridine-3-carboxamide] | 4 nM
Cc1ncccc1-c1cnc2[nH]cc(-c3cc(F)c4nc(C)n(C(C)C)c4c3)c2c1 [Compound 1207, 4-Fluoro-1-isopropyl-2-methyl-6-(5-(2-methylpyridin-3-yl)-1H-pyrrolo[2,3-b]pyridin-3-yl)-1H-benzo[d]imidazole] | 2 nM
Cc1ccncc1-c1cnc2[nH]cc(-c3cc(F)c4nc(C)n(C(C)C)c4c3)c2c1 [Compound 1249, 4-Fluoro-1-isopropyl-2-methyl-6-(5-(4-methylpyridin-3-yl)-1H-pyrrolo[2,3-b]pyridin-3-yl)-1H-benzo[d]imidazole] | 2 nM
Cc1ccnc(C)c1-c1cnc2[nH]cc(-c3cc(F)c4nc(C)n(C(C)C)c4c3)c2c1 [Compound 1291, 6-(5-(2,4-Dimethylpyridin-3-yl)-1H-pyrrolo[2,3-b]pyridin-3-yl)-4-fluoro-1-isopropyl-2-methyl-1H-benzo[d]imidazole] | 7 nM
Cc1nc2c(F)cc(-c3c[nH]c4ncc(-c5ccc(N6CCN(C)CC6)nc5)cc34)cc2n1C(C)C [Compound 1333, 4-Fluoro-1-isopropyl-2-methyl-6-(5-(6-(4-methylpiperazin-1-yl)pyridin-3-yl)-1H-pyrrolo[2,3-b]pyridin-3-yl)-1H-benzo[d]imidazole] | 1 nM
CN1CCN(c2cc(-c3cnc4[nH]cc(-c5ccc6nccn6c5)c4c3)ccn2)CC1 [Compound 1372, 6-(5-(2-(4-Methylpiperazin-1-yl)pyridin-4-yl)-1H-pyrrolo[2,3-b]pyridin-3-yl)imidazo[1,2-a]pyridine] | 1 nM
Cc1nc2c(F)cc(-c3c[nH]c4ncc(-c5ccnc(N6CCN(C)CC6)c5)cc34)cc2n1C(C)C [Compound 1375, 4-Fluoro-1-isopropyl-2-methyl-6-(5-(2-(4-methylpiperazin-1-yl)pyridin-4-yl)-1H-pyrrolo[2,3-b]pyridin-3-yl)-1H-benzo[d]imidazole] | 2 nM

Source: patent US20230192686A1, “1H-PYRROLO[2,3-B]PYRIDINES AND PREPARATION AND USES THEREOF” (BioSplice Therapeutics, Inc., priority 2021, published 2023)
